Compound in the test “IU1-47 + Navitoclax”: CC1=CC(=C(N1C2=CC=C(C=C2)Cl)C)C(=O)CN3CCCCC3 [IU1-47] + CC1(C)CCC(c2ccc(Cl)cc2)=C(CN2CCN(c3ccc(C(=O)NS(=O)(=O)c4ccc(N[C@H](CCN5CCOCC5)CSc5ccccc5)c(S(=O)(=O)C(F)(F)F)c4)cc3)CC2)C1 [Navitoclax] (partner 0.5 µM)
Briefly: relative viability (nuclei count vs DMSO), 5 days (fraction); higher = more cells survive. In a few lines: (§1)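 Lung cancer cell lines, seeded in 1536-well plates, were treated the following day by pin tool with a single drug or with five library-drug doses (not always all listed) in √10 steps on top of a fixed anchor-drug dose. Cells were fixed and nuclei stained in one step after 5 days, and nuclei were counted. Relative viability is the nuclei count for treated wells divided by that for vehicle wells, reported as medians of duplicate plates.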

Compound in the test “FG-4592 + Foretinib”: Cc1nc(C(=O)NCC(=O)O)c(O)c2ccc(Oc3ccccc3)cc12 [FG-4592] + COc1cc2c(Oc3ccc(NC(=O)C4(C(=O)Nc5ccc(F)cc5)CC4)cc3F)ccnc2cc1OCCCN1CCOCC1 [Foretinib] (partner 0.25 µM)
Described as above. In a few lines: as §1

For NCI-H2170, the relative viability in the test with IU1-47 + Navitoclax (first compound 0.08 µM) amounted to 0.74; in the test with IU1-47 + Navitoclax (first compound 0.253 µM) it was 0.734; in the test with IU1-47 + Navitoclax (first compound 0.8 µM), 0.684; with IU1-47 + Navitoclax (first compound 2.53 µM) it was 0.525; with IU1-47 + Navitoclax (first compound 8 µM), 0.577; with FG-4592 + Foretinib (first compound 0.08 µM), 1.01. In addition, the relative viability in the test with FG-4592 + Foretinib (first compound 0.253 µM) is 0.962; with FG-4592 + Foretinib (first compound 0.8 µM), 1.03; with FG-4592 + Foretinib (first compound 2.53 µM) it was 1.04; with FG-4592 + Foretinib (first compound 8 µM), 0.915.
For NCI-H1395, the relative viability in the test with IU1-47 + Navitoclax (first compound 0.08 µM) came out at 1.03; in the test with IU1-47 + Navitoclax (first compound 0.253 µM), 1.07; with IU1-47 + Navitoclax (first compound 0.8 µM) it was 1.14; with IU1-47 + Navitoclax (first compound 8 µM), 1.15; with FG-4592 + Foretinib (first compound 0.08 µM), 1.06; with FG-4592 + Foretinib (first compound 0.253 µM) it was 0.889. In addition, the values for the relative viability in the test with FG-4592 + Foretinib (first compound 0.8 µM), with FG-4592 + Foretinib (first compound 2.53 µM) and in the test with FG-4592 + Foretinib (first compound 8 µM) were 0.981, 0.997 and 0.963, respectively.
As to IA-LM, the relative viability with IU1-47 + Navitoclax (first compound 0.08 µM) was determined as 0.758; in the test with IU1-47 + Navitoclax (first compound 0.253 µM) it was 1.08; with IU1-47 + Navitoclax (first compound 0.8 µM), 0.739; with IU1-47 + Navitoclax (first compound 2.53 µM), 1.05; with IU1-47 + Navitoclax (first compound 8 µM), 0.81; with FG-4592 + Foretinib (first compound 0.08 µM), 1.19. Moreover, the relative viability with FG-4592 + Foretinib (first compound 0.253 µM) worked out at 1.14; with FG-4592 + Foretinib (first compound 0.8 µM) it was 1.18; in the test with FG-4592 + Foretinib (first compound 2.53 µM) it was 1.14; in the test with FG-4592 + Foretinib (first compound 8 µM) it was 1.08.
Turning to NCI-H838, the relative viability amounted to 1.25 in the test with IU1-47 + Navitoclax (first compound 0.08 µM); 1.21 in the test with IU1-47 + Navitoclax (first compound 0.253 µM); 1.32 with IU1-47 + Navitoclax (first compound 0.8 µM); 1.27 in the test with IU1-47 + Navitoclax (first compound 2.53 µM); 1.15 with IU1-47 + Navitoclax (first compound 8 µM); 1.06 with FG-4592 + Foretinib (first compound 0.08 µM). Also, the relative viability was 0.922 with FG-4592 + Foretinib (first compound 0.253 µM), 1.08 with FG-4592 + Foretinib (first compound 0.8 µM), 1.06 in the test with FG-4592 + Foretinib (first compound 2.53 µM) and 0.969 with FG-4592 + Foretinib (first compound 8 µM).
As to CAL-12T, the relative viability in the test with IU1-47 + Navitoclax (first compound 0.08 µM) came out at 1.29; in the test with IU1-47 + Navitoclax (first compound 0.253 µM) it was 1.32; in the test with IU1-47 + Navitoclax (first compound 0.8 µM), 1.24; with IU1-47 + Navitoclax (first compound 2.53 µM), 1.24; in the test with IU1-47 + Navitoclax (first compound 8 µM), 1.38; with FG-4592 + Foretinib (first compound 0.08 µM) it was 1.05. Moreover, the relative viability with FG-4592 + Foretinib (first compound 0.253 µM) was 0.746; with FG-4592 + Foretinib (first compound 0.8 µM), 1.06; with FG-4592 + Foretinib (first compound 2.53 µM), 1.02; with FG-4592 + Foretinib (first compound 8 µM) it was 1.01.
Regarding EBC-1, the relative viability was found to be 0.487 with IU1-47 + Navitoclax (first compound 0.08 µM); 0.479 with IU1-47 + Navitoclax (first compound 0.253 µM); 0.393 in the test with IU1-47 + Navitoclax (first compound 0.8 µM); 0.413 with IU1-47 + Navitoclax (first compound 2.53 µM); 0.299 with IU1-47 + Navitoclax (first compound 8 µM); 0.11 with FG-4592 + Foretinib (first compound 0.08 µM). The relative viability with FG-4592 + Foretinib (first compound 0.253 µM) came to 0.0946; with FG-4592 + Foretinib (first compound 0.8 µM), 0.106; with FG-4592 + Foretinib (first compound 2.53 µM), 0.0866; with FG-4592 + Foretinib (first compound 8 µM) it was 0.1.

These data come from the supplement of paper PMC10307832.
